Consider 6 compounds from ChEMBL document CHEMBL1122675, “Topical carbonic anhydrase inhibitors” (J Med Chem, 1984).

In brackets after ≈: the same amount, converted by molar mass.

Test system in one data set: not listed separately
Put plainly: Corneal permeability coefficient was determined. The format is ADME.
Details: not given
In the case of `CCOc1ccc2nc(S(N)(=O)=O)sc2c1` [ETHOXZOLAMIDE], the Permeability coefficient is 43.9 ×10⁻⁶ cm/s.
`NS(=O)(=O)c1nc2ccccc2s1` displayed a Permeability coefficient of 36.2 ×10⁻⁶ cm/s.

Test system in a further data set: not listed separately
Put plainly: Solubility at a pH 7.2 phosphate buffer, 37 degrees celsius (N=6). The format is physicochemical. Particulars: buffer.
As a reminder, the solubility is the dissolved amount per volume that the medium holds. As for `NS(=O)(=O)c1nc2ccccc2s1`, the solubility is 1021 µg/mL (≈ 4760 µM).
Turning to `NS(=O)(=O)c1nc2ccc(O)cc2s1`, the solubility worked out at 1560 µg/mL (≈ 6770 µM).

The data set is the same for the next values; noted with them: phosphate buffer, read-out: Solubility.
As for `CCOc1ccc2nc(S(=O)(=O)NC(C)=O)sc2c1`, the solubility amounted to 11500 µg/mL (≈ 38300 µM).
For `NS(=O)(=O)c1nc2ccc(Cl)cc2s1`, the solubility worked out at 607 µg/mL (≈ 2440 µM).
On the same count and under the same terms, the result for `CCOc1ccc2nc(S(=O)(=O)NC)sc2c1` reads 64 µg/mL (≈ 235 µM); that for `CCOc1ccc2nc(S(N)(=O)=O)sc2c1` [ETHOXZOLAMIDE], 60 µg/mL (≈ 232 µM).

Test system in the next data set: not listed separately
The data set can be described thus: Compound was tested for Octanol / pH 7.2 phosphate buffer distribution coefficient (N=2-3). The format is physicochemical.
Details: not given
By logD is commonly meant lipophilicity at a set pH, counting ionised and neutral species. Low values mean a more hydrophilic compound, high ones a more lipophilic compound. Turning to `CCOc1ccc2nc(S(=O)(=O)NC(C)=O)sc2c1`, the logD is -1.02.
Same read-out and setting: the result for `NS(=O)(=O)c1nc2ccc(Cl)cc2s1` reads 2.1; that for `CCOc1ccc2nc(S(=O)(=O)NC)sc2c1`, 2.59.
Same read-out and setting: as for `CCOc1ccc2nc(S(N)(=O)=O)sc2c1` [ETHOXZOLAMIDE], the figure is 2.06; as for `NS(=O)(=O)c1nc2ccccc2s1`, 1.33; as for `NS(=O)(=O)c1nc2ccc(O)cc2s1`, 1.12.

Test system in a further data set: not listed separately
Put plainly: Acid dissociation constant was determined. The format is ADME.
Details: not given
A word on the pKa: it is the negative logarithm of the acid dissociation constant. In turn, `NS(=O)(=O)c1nc2ccc(O)cc2s1` came in with a pKa of 9.26.

The data set is the same for the next values; noted with them: read-out: pKa.
On to `CCOc1ccc2nc(S(=O)(=O)NC(C)=O)sc2c1`, for which the pKa turned out to be 2.95.
`NS(=O)(=O)c1nc2ccc(Cl)cc2s1`: the pKa was 7.72.
As for `CCOc1ccc2nc(S(=O)(=O)NC)sc2c1`, the pKa came out at 9.1.
Same read-out and setting: the result for `NS(=O)(=O)c1nc2ccccc2s1` reads 7.9; that for `NS(=O)(=O)c1nc2ccc(O)cc2s1`, 7.81.

In the next data set the target is Carbonic anhydrase (Homo sapiens) (UniProt P00918+P43166+P00915+P07451+P23280+O43570+Q9ULX7+Q16790+P22748+Q8N1Q1+Q9Y2D0+P35218).
Details: not given
`CCOc1ccc2nc(S(=O)(=O)NC(C)=O)sc2c1` showed a CAI activity of 0.0041.
Same read-out and setting: as for `NS(=O)(=O)c1nc2ccc(Cl)cc2s1`, the figure is 1.23; as for `CCOc1ccc2nc(S(=O)(=O)NC)sc2c1`, 0.0064.
